PubChem BioAssay (NCI)
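Cells were grown in 96-well plates and exposed to each compound for 48 hours at five concentrations; endpoints were interpolated linearly between bracketing concentrations, or set to the highest concentration if not reached. GI50 is the concentration that inhibits growth by half. TGI: concentration producing complete growth inhibition.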

Legend:
Assay in all cases: growth of human tumour cells (NCI), 48 h
HCT-116 colon = system: HCT-116 colon
SNB-19 CNS = system: SNB-19 CNS
CCRF-CEM leukemia = system: CCRF-CEM leukemia
K-562 leukemia = system: K-562 leukemia
COLO 205 colon = system: COLO 205 colon
NCI-H460 lung = system: NCI-H460 lung
LOX IMVI melanoma = system: LOX IMVI melanoma
OVCAR-8 ovarian = system: OVCAR-8 ovarian
ACHN renal = system: ACHN renal
UACC-62 melanoma = system: UACC-62 melanoma
HS 578T breast = system: HS 578T breast
HCT-15 colon = system: HCT-15 colon
U251 CNS = system: U251 CNS
IGROV1 ovarian = system: IGROV1 ovarian
BT-549 breast = system: BT-549 breast
OVCAR-3 ovarian = system: OVCAR-3 ovarian
SF-295 CNS = system: SF-295 CNS
NCI-H522 lung = system: NCI-H522 lung
OVCAR-5 ovarian = system: OVCAR-5 ovarian
TK-10 renal = system: TK-10 renal
UO-31 renal = system: UO-31 renal
RXF 393 renal = system: RXF 393 renal
A498 renal = system: A498 renal
RPMI-8226 leukemia = system: RPMI-8226 leukemia
MALME-3M melanoma = system: MALME-3M melanoma
KM12 colon = system: KM12 colon
HCC-2998 colon = system: HCC-2998 colon
SF-268 CNS = system: SF-268 CNS
OVCAR-4 ovarian = system: OVCAR-4 ovarian
SR leukemia = system: SR leukemia
CAKI-1 renal = system: CAKI-1 renal
SNB-75 CNS = system: SNB-75 CNS
M14 melanoma = system: M14 melanoma
PC-3 prostate = system: PC-3 prostate
MOLT-4 leukemia = system: MOLT-4 leukemia
MDA-MB-435 = system: MDA-MB-435
T-47D breast = system: T-47D breast
HL-60(TB) leukemia = system: HL-60(TB) leukemia
MCF7 breast = system: MCF7 breast
HOP-92 NSCLC = system: HOP-92 NSCLC
SF-539 CNS = system: SF-539 CNS
MDA-MB-231 breast = system: MDA-MB-231 breast
SK-MEL-5 melanoma = system: SK-MEL-5 melanoma
SK-OV-3 ovarian = system: SK-OV-3 ovarian
HT29 colon = system: HT29 colon
SK-MEL-2 melanoma = system: SK-MEL-2 melanoma
SN12C renal = system: SN12C renal
A549 NSCLC = system: A549 NSCLC
786-0 renal = system: 786-0 renal
SK-MEL-28 melanoma = system: SK-MEL-28 melanoma
UACC-257 melanoma = system: UACC-257 melanoma
HOP-62 NSCLC = system: HOP-62 NSCLC
EKVX NSCLC = system: EKVX NSCLC
DU-145 prostate = system: DU-145 prostate
NCI-H226 lung = system: NCI-H226 lung
SW-620 colon = system: SW-620 colon
NCI/ADR-RES ovarian = system: NCI/ADR-RES ovarian

`CN1CCN(Cc2ccc(NC(=O)c3cncc(C#Cc4cnc(N)nc4)c3)cc2C(F)(F)F)CC1` gave a GI50 (HCT-116 colon) of 0.231 µM, a TGI (HCT-116 colon) of 5.16 µM and a GI50 (SNB-19 CNS) of 4.38 µM. For the same compound, the TGI (SNB-19 CNS) was 27.6 µM, the GI50 (CCRF-CEM leukemia) was 1.16 µM and the TGI (CCRF-CEM leukemia) was 16 µM. The GI50 (K-562 leukemia) was 0.005 µM, the TGI (K-562 leukemia) was 50 µM and the GI50 (COLO 205 colon) was 0.398 µM. The TGI (COLO 205 colon) was 5.61 µM, the GI50 (NCI-H460 lung) was 0.306 µM and the TGI (NCI-H460 lung) was 6.23 µM. For the same compound, the GI50 (LOX IMVI melanoma) was 0.189 µM, the TGI (LOX IMVI melanoma) was 0.846 µM and the GI50 (OVCAR-8 ovarian) was 1.07 µM. The TGI (OVCAR-8 ovarian) was 9.57 µM, the GI50 (ACHN renal) was 0.244 µM and the TGI (ACHN renal) was 5.23 µM. It also gave a GI50 (UACC-62 melanoma) of 0.298 µM, a TGI (UACC-62 melanoma) of 3.39 µM and a GI50 (HS 578T breast) of 0.331 µM. It also gave a TGI (HS 578T breast) of 2.29 µM, a GI50 (HCT-15 colon) of 0.556 µM and a TGI (HCT-15 colon) of 12.9 µM. It also gave a GI50 (U251 CNS) of 0.521 µM, a TGI (U251 CNS) of 9.28 µM and a GI50 (IGROV1 ovarian) of 0.189 µM. It also gave a TGI (IGROV1 ovarian) of 5.21 µM, a GI50 (BT-549 breast) of 1.24 µM and a TGI (BT-549 breast) of 5.47 µM. The GI50 (OVCAR-3 ovarian) was 0.957 µM, the TGI (OVCAR-3 ovarian) was 10.1 µM and the GI50 (SF-295 CNS) was 1.43 µM. For the same compound, the TGI (SF-295 CNS) was 9.22 µM, the GI50 (NCI-H522 lung) was 0.376 µM and the TGI (NCI-H522 lung) was 6.93 µM. For the same compound, the GI50 (OVCAR-5 ovarian) was 0.994 µM, the TGI (OVCAR-5 ovarian) was 9.76 µM and the GI50 (TK-10 renal) was 0.81 µM. For the same compound, the TGI (TK-10 renal) was 7.17 µM, the GI50 (UO-31 renal) was 0.396 µM and the TGI (UO-31 renal) was 2.88 µM. The GI50 (RXF 393 renal) was 0.346 µM, the TGI (RXF 393 renal) was 4.18 µM and the GI50 (A498 renal) was 0.228 µM. The TGI (A498 renal) was 1.14 µM, the GI50 (RPMI-8226 leukemia) was 0.66 µM and the TGI (RPMI-8226 leukemia) was 6.43 µM. For the same compound, the GI50 (MALME-3M melanoma) was 0.15 µM, the TGI (MALME-3M melanoma) was 0.653 µM and the GI50 (KM12 colon) was 0.0521 µM. For the same compound, the TGI (KM12 colon) was 7.27 µM, the GI50 (HCC-2998 colon) was 1.35 µM and the TGI (HCC-2998 colon) was 9.53 µM. It also gave a GI50 (SF-268 CNS) of 0.93 µM, a TGI (SF-268 CNS) of 8.72 µM and a GI50 (OVCAR-4 ovarian) of 0.553 µM. It also gave a TGI (OVCAR-4 ovarian) of 9.75 µM, a GI50 (SR leukemia) of 0.425 µM and a TGI (SR leukemia) of 8.48 µM. It also gave a GI50 (CAKI-1 renal) of 0.15 µM, a TGI (CAKI-1 renal) of 0.763 µM and a GI50 (SNB-75 CNS) of 0.123 µM. It also gave a TGI (SNB-75 CNS) of 1 µM, a GI50 (M14 melanoma) of 0.178 µM and a TGI (M14 melanoma) of 1.28 µM. It also gave a GI50 (PC-3 prostate) of 0.821 µM, a TGI (PC-3 prostate) of 17.2 µM and a GI50 (MOLT-4 leukemia) of 0.449 µM. The TGI (MOLT-4 leukemia) was 11.6 µM, the GI50 (MDA-MB-435) was 0.247 µM and the TGI (MDA-MB-435) was 5.56 µM. It also gave a GI50 (T-47D breast) of 0.916 µM, a TGI (T-47D breast) of 50 µM and a GI50 (HL-60(TB) leukemia) of 0.283 µM. For the same compound, the TGI (HL-60(TB) leukemia) was 3.59 µM, the GI50 (MCF7 breast) was 1.47 µM and the TGI (MCF7 breast) was 11.6 µM. It also gave a GI50 (HOP-92 NSCLC) of 0.157 µM, a TGI (HOP-92 NSCLC) of 1.23 µM and a GI50 (SF-539 CNS) of 0.263 µM. It also gave a TGI (SF-539 CNS) of 3.78 µM, a GI50 (MDA-MB-231 breast) of 0.258 µM and a TGI (MDA-MB-231 breast) of 3.46 µM. It also gave a GI50 (SK-MEL-5 melanoma) of 1.18 µM, a TGI (SK-MEL-5 melanoma) of 5.7 µM and a GI50 (SK-OV-3 ovarian) of 0.174 µM. For the same compound, the TGI (SK-OV-3 ovarian) was 1.12 µM, the GI50 (HT29 colon) was 0.351 µM and the TGI (HT29 colon) was 6.01 µM. The GI50 (SK-MEL-2 melanoma) was 0.11 µM, the TGI (SK-MEL-2 melanoma) was 0.339 µM and the GI50 (SN12C renal) was 0.332 µM. The TGI (SN12C renal) was 5.74 µM, the GI50 (A549 NSCLC) was 1.01 µM and the TGI (A549 NSCLC) was 8.74 µM. The GI50 (786-0 renal) was 0.849 µM, the TGI (786-0 renal) was 5.79 µM and the GI50 (SK-MEL-28 melanoma) was 0.56 µM. The TGI (SK-MEL-28 melanoma) was 3.54 µM, the GI50 (UACC-257 melanoma) was 0.773 µM and the TGI (UACC-257 melanoma) was 6.12 µM. The GI50 (HOP-62 NSCLC) was 0.952 µM, the TGI (HOP-62 NSCLC) was 6.43 µM and the GI50 (EKVX NSCLC) was 1.2 µM. It also gave a TGI (EKVX NSCLC) of 14.6 µM, a GI50 (DU-145 prostate) of 0.385 µM and a TGI (DU-145 prostate) of 11.4 µM. It also gave a GI50 (NCI-H226 lung) of 0.203 µM, a TGI (NCI-H226 lung) of 2.22 µM and a GI50 (SW-620 colon) of 0.49 µM. It also gave a TGI (SW-620 colon) of 6.41 µM, a GI50 (NCI/ADR-RES ovarian) of 3.56 µM and a TGI (NCI/ADR-RES ovarian) of 19.9 µM.
